Experimental findings from US6506766B1 (Abbott Laboratories, priority 1998, dated 2003) are described below.

Test [1] addresses T1, human progesterone receptor-A [PRA] isoform (Homo sapiens, UniProt P06401).
T1 construct: host or cells: insect SF21 cells (baculovirus)
T1 sequence (P06401 1-769 isoform P06401-2): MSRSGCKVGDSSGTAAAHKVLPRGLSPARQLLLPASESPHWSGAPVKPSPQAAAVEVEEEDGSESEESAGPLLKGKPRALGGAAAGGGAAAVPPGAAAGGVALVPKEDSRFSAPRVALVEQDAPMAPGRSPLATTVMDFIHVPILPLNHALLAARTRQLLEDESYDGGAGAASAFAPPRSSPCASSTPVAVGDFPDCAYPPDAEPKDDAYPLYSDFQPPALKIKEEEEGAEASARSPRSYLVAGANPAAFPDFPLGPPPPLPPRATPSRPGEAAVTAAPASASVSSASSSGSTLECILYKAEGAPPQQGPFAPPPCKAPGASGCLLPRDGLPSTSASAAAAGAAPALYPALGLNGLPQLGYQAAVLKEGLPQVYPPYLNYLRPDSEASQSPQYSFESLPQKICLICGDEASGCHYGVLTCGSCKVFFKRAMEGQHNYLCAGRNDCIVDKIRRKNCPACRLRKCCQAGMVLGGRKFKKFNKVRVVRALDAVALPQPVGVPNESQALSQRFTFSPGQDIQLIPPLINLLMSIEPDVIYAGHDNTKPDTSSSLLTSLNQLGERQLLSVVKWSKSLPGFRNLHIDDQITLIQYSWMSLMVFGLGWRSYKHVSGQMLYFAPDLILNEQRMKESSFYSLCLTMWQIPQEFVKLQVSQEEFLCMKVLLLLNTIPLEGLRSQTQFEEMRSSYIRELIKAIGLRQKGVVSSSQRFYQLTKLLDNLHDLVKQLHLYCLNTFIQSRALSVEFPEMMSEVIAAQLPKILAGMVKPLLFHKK
The test can be described thus: Radioligand binding with human progesterone receptor cytosol ([3H]-progesterone competition). Particulars: PRA cytosol expressed in insect SF21 cells, [3H]Prog ~0.8 nM, 4° C. overnight; Ki by Cheng-Prusoff, KL ~4.5 nM; read-out: Ki (nM) PR.

Test [2] concerns the target T2, human glucocorticoid receptor-α [GRX] isoform (Homo sapiens, UniProt P04150).
T2 construct: host or cells: insect SF21 cells (baculovirus)
T2 sequence (P04150 1-777): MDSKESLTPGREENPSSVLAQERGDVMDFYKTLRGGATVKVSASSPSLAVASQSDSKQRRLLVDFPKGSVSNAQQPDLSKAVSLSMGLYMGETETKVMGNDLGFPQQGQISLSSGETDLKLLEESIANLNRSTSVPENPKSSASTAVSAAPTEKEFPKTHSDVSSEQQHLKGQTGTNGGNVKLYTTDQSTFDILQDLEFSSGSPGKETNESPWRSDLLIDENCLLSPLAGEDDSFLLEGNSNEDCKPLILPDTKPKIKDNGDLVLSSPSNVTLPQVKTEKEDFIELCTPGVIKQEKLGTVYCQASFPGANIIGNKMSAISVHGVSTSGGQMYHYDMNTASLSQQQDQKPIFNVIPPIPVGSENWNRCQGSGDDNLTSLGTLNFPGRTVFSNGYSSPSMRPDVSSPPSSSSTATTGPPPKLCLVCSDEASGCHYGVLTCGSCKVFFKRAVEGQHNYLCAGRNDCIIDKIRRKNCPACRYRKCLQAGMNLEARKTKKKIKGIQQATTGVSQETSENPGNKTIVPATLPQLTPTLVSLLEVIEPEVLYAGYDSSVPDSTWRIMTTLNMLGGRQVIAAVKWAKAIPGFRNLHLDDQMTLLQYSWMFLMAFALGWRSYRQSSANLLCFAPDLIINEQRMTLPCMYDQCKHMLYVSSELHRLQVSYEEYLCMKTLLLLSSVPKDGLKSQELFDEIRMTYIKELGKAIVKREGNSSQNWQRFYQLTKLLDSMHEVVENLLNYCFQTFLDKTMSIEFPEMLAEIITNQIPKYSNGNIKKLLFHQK
Put plainly: Radioligand binding with human glucocorticoid receptor cytosol ([3H]-dexamethasone competition). Particulars: GRX cytosol expressed in insect SF21 cells, [3H]-Dex ~0.9 nM, 4° C. overnight; Ki by Cheng-Prusoff, KL ~[…]; read-out: Ki (nM) GR.

Each structure is given as a SMILES string.

For `COc1cccc2c1-c1ccc3c(c1C(c1cc(C)cc(NC(=O)N(C)C)c1)O2)C(C)=CC(C)(C)N3` (stereo not shown) [Example 118, N′-[3-(2,5-Dihydro-10-methoxy-2,2,4-trimethyl-1H-1benzopyrano[3,4-f]quinolin-5-yl)-5-methylphenyl]-N,N-dimethylurea], the values for the Ki in test [1] and in test [2] were at least 10000 nM and 43 nM, respectively.

As to `COc1cccc2c1-c1ccc3c(c1C(c1cccc(NCc4ccccc4)c1)O2)C(C)=CC(C)(C)N3` (stereo not shown) [Example 119, N-[3-(2,5-Dihydro-10-methoxy-2,2,4-trimethyl-1H-[1]benzopyrano[3,4-f]quinolin-5-yl)phenyl]benzenemethanamine], the Ki in test [1] is at least 10000 nM; in test [2], 6.9 nM.

In the case of `COc1cccc2c1-c1ccc3c(c1C(=Cc1cc(Cl)cc(Cl)c1)O2)C(C)=CC(C)(C)N3` [Example 120, 5-[(3,5-dichlorphenyl)methylen]-2,5-dihydro-10-methoxy-2,2,4-trimethyl-1H-[1]benzopyrano[3,4-f]puinoline], the Ki was determined as 6240 nM in test [1] and 30.3 nM in test [2].

On to `COc1cccc2c1-c1ccc3c(c1C(=Cc1ccc(Cl)cc1)O2)C(C)=CC(C)(C)N3` [Example 121, 5-[(4-chlorophenyl)methylene]-2,5-dihydro-10-methoxy-2,2,4-trimethyl-1H-[1]benzopyrano[3,4-f]quinoline], for which the Ki came to 672 nM in test [1] and 11.3 nM in test [2].

In the case of `COc1cccc2c1-c1ccc3c(c1C(=Cc1cccc(C(F)(F)F)c1)O2)C(C)=CC(C)(C)N3` [Example 122, 2,5-Dihydro-10-methoxy-2,2,4-trimethyl-5-[[3-(trifluoromethyl)phenyl]methylene-]1H-[1]-benzopyrano[3,4-f]quinoline], the Ki in test [1] came to 1410 nM; in test [2], 11.8 nM.

Turning to `COc1cccc2c1-c1ccc3c(c1C(=Cc1c(F)cccc1F)O2)C(C)=CC(C)(C)N3` [Example 123], the Ki amounted to 9570 nM in test [1] and 6.1 nM in test [2].

For `COc1cccc2c1-c1ccc3c(c1C(=Cc1ccccc1Cl)O2)C(C)=CC(C)(C)N3` [Example 124], the Ki in test [1] turned out to be 1610 nM; in test [2], 3.2 nM.

Regarding `COc1cccc2c1-c1ccc3c(c1C(=Cc1c(Cl)cccc1Cl)O2)C(C)=CC(C)(C)N3` [Example 125], the figures for the Ki in test [1] and in test [2] were at least 10000 nM and 36.6 nM, respectively.

Turning to `COc1cccc2c1-c1ccc3c(c1C(=Cc1ccccc1F)O2)C(C)=CC(C)(C)N3` [Example 126], the Ki in test [1] worked out at 1410 nM; in test [2], 2.9 nM.

Regarding `COc1cccc2c1-c1ccc3c(c1C(=CC1=NC(C)(C)CO1)O2)C(C)=CC(C)(C)N3` [Example 127, 2,5-Dihydro-10-methoxy-2,2,4-trimethyl-5-[(4,5-dihydro-4,4-dimethyl-2-oxazolyl)methylene]-1H-[1]benzopyrano[3,4-f]quinoline], the values for the Ki in test [1] and in test [2] were at least 10000 nM and 29.3 nM, respectively.

Consider `COc1cccc2c1-c1ccc3c(c1C(=Cc1ccccn1)O2)C(C)=CC(C)(C)N3` [Example 128, 2,5-Dihydro-10-methoxy-2,2,4-trimethyl-5-(2-pyridinylmethylene)-1H-[1]benzopyrano[3,4-f]quinoline], for which the Ki in test [1] was at least 10000 nM; in test [2] it was 5.9 nM.

On to `COc1cccc2c1-c1ccc3c(c1C(c1cccs1)O2)C(C)=CC(C)(C)N3` (stereo not shown) [Example 129, 2,5-Dihydro-10-methoxy-2,2,4-trimethyl-5-(2-thienyl)-1H-[1]benzopyrano[3,4-f]quinoline], for which the Ki in test [1] was determined as 3620 nM; in test [2], 5.5 nM.

Regarding `C=CCC1Oc2ccc(OC)c(OC)c2-c2ccc3c(c21)C(C)=CC(C)(C)N3` (stereo not shown) [Example 130, 2,5-Dihydro-9,10-dimethoxy-2,2,4-trimethyl-5-(2-propenyl)-1H-[1]benzopyrano[3,4-f]quinoline], the Ki came to 1050 nM in test [1] and 11.9 nM in test [2].

With `COc1ccc2c(c1OC)-c1ccc3c(c1C(C1C=CCCC1)O2)C(C)=CC(C)(C)N3` (stereo not shown) [Example 131, 5-(2-Cyclohexen-1-yl)-2,5-dihydro-9,10-dimethoxy-2,2,4-trimethyl-1H-[1]benzopyrano[3,4-f]quinoline], the Ki came out at 996 nM in test [1] and 7.71 nM in test [2].

`C=C(C)CCC1Oc2cccc(OC)c2-c2ccc3c(c21)C(C)=CC(C)(C)N3` (stereo not shown) [Example 132, 2,5-Dihydro-10-methoxy-5-(3-methyl-3-butenyl)-2,2,4-trimethyl-1H-[1]benzopyrano[3,4-f]quinoline]: the results for the Ki in test [1] and in test [2] were 9890 nM and 230 nM, respectively.

Regarding `C=CC1(C2Oc3cccc(OC)c3-c3ccc4c(c32)C(C)=CC(C)(C)N4)CCCCC1` (stereo not shown) [Example 139, 2,5-Dihydro-10-methoxy-5-(1-ethenyl-1-cyclohexyl)-2,2,4-trimethyl-1H-[1]benzopyrano[3,4-f]quinoline], the Ki in test [1] was 4800 nM; in test [2], 235 nM.

With `COc1cccc2c1-c1ccc3c(c1C(C1C=CCCC1(C)C)O2)C(C)=CC(C)(C)N3` (stereo not shown) [Example 140], the results for the Ki in test [1] and in test [2] were at least 10000 nM and 13 nM, respectively.

Regarding `COc1cccc2c1-c1ccc3c(c1C(C1CCC=C(CO)C1)O2)C(C)=CC(C)(C)N3` (stereo not shown) [Example 150, 2,5-Dihydro-10-methoxy-5-(3-hydroxymethyl-3-cyclohexenyl)-2,2,4-trimethyl-1H-[1]benzopyrano[3,4-f]quinoline], the Ki in test [1] is at least 10000 nM; in test [2], 106 nM.

`COc1cccc2c1-c1ccc3c(c1C(c1c[nH]c4ccccc14)O2)C(C)=CC(C)(C)N3` (stereo not shown) [Example 151, 2,5-Dihydro-10-methoxy-5-(3-indolyl)-2,2,4-trimethyl-1H-[1]benzopyrano[3,4-f]quinoline]: the values for the Ki in test [1] and in test [2] were at least 10000 nM and 298 nM, respectively.

As to `COc1cccc2c1-c1ccc3c(c1[C@H]([C@@H]1C=C(C)CCC1)O2)C(C)=CC(C)(C)N3` [Example 154], the values for the Ki in test [1] and in test [2] were at least 10000 nM and 0.7 nM, respectively.

As for `COc1cccc2c1-c1ccc3c(c1[C@H]([C@H]1C=C(CO)CCC1)O2)C(C)=CC(C)(C)N3` [Example 155], the Ki in test [1] is at least 10000 nM; in test [2] it was 0.86 nM.

For `COc1cccc2c1-c1ccc3c(c1[C@@H]([C@@H]1C=C(CO)CCC1)O2)C(C)=CC(C)(C)N3` [Example 156, (+) (5R,3′S) 2,5-Dihydro-10-methoxy-5-(1-hydroxymethyl-3-cyclohexenyl)-2,2,4-trimethyl-1H-[1]benzopyrano[3,4-f]quinoline], the Ki in test [1] is 4100 nM; in test [2], 0.9 nM.

For `COc1cccc2c1-c1ccc3c(c1[C@H]([C@H]1C=C(C)CCC1)O2)C(C)=CC(C)(C)N3` [Example 157, (−)-(5S,3′R) 2,5-Dihydro-10-methoxy-5-(1-methyl-3-cyclohexenyl)-2,2,4-trimethyl-1H-[1]benzopyrano[3,4-f]quinoline], the figures for the Ki in test [1] and in test [2] were 433 nM and 1.5 nM, respectively.

In the case of `COc1cccc2c1-c1ccc3c(c1[C@@H]([C@@H]1C=C(C)CCC1)O2)C(C)=CC(C)(C)N3` [Example 158], the Ki is at least 10000 nM in test [1] and 48 nM in test [2].

With `COc1cccc2c1-c1ccc3c(c1C(C1C=C(CCl)CCC1)O2)C(C)=CC(C)(C)N3` (stereo not shown) [Example 159], the values for the Ki in test [1] and in test [2] were 1840 nM and 3.8 nM, respectively.

As for `COCC1=CC(C2Oc3cccc(OC)c3-c3ccc4c(c32)C(C)=CC(C)(C)N4)CCC1` (stereo not shown) [Example 160], the Ki was at least 10000 nM in test [1] and 1.8 nM in test [2].
